Measurements from patent publication US20030186943A1, “Substituted gamma-phenyl-delta-lactams and uses related thereto” (Inflazyme Pharmaceuticals Ltd., priority 1998, published 2003).
Values joined by “and” are separate entries in the source; they are usually repeats but may differ in a detail not shown here. Equal values may be shown once. Read-outs that look alike come from different tables or passages of the source.

Assays:
[1] = test system: TNBS-induced colitis in the rat; test: TNBS-induced colitis model of inflammatory bowel disease in the rat;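 note: rat colitis induced by intracolonic TNBS in 50% ethanol, distal colon assessed at sacrifice on day 7, with saline-instilled vehicle-treated rats as controls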
Description: Colitis was induced by intracolonic instillation of the hapten TNBS (60 mg/mL) in 0.5 mL of 50% ethanol. […] An additional group of rats received saline intracolonically in place of TNBS/ethanol and was treated with vehicle at the same times as outlined above. Body weights were recorded at the beginning of the study and at days 2 and 7.
The rats were sacrificed on the 7th day after the induction of colitis and the extent of damage and inflammation was assessed. After the rats were sacrificed, the distal colon was removed and pinned out on a wax platform. The presence or absence of diarrhea was noted, as well as the presence and severity of adhesions between the colon and other organs, and the severity and extent of colonic damage. […] After scoring, a sample of colonic tissue was excised for measurement of myeloperoxidase activity as an index of granulocyte infiltration (see Wallace et al., Gastroenterology 117: in press, 1999; and Morris et al., Gastroenterology 96:795-803, 1989). This tissue sample was 1 cm long (along the axis of the colon) and 5 mm wide and was taken from a region of macroscopically visible damage (or the corresponding region in any rats in which there was no damage). The remainder of the tissue was fixed in neutral buffered formalin and processed by routine methods for subsequent evaluation by light microscopy. In a blinded manner, the sample of colonic tissue from each rat was examined for evidence of mucosal ulceration and inflammation. The percentage of the luminal surface of the section in which ulceration was present was calculated.

[2] = test system: primary human neutrophils; test: Generation of reactive oxygen species by fMLP-activated neutrophils (luminol-enhanced chemiluminescence); type: cell-based; conditions: Neutrophil
Excerpt: Neutrophil activation can be measured by quantitation of ROS generated in vitro. Measurement of ROS allows specific quantitation of a pro-inflammatory species and is also a general measure of neutrophil activation. The most sensitive method for measuring the production of ROS by neutrophils is luminol-enhanced chemiluminescence. […] The assay system used to evaluate the ability of compounds to inhibit ROS generation in neutrophils is indicative of anti-inflammatory activity that may be efficacious in disease states including but not limited to rheumatoid arthritis and inflammatory bowel disease.
Freshly isolated primary human neutrophils (5×10^6 cells/mL) were incubated with the required concentrations of compound or vehicle for 30 minutes at 37° C. in HBSS buffer (pH 7.4) containing Ca^2+. 100 nM wortmannin was used as a positive control. Aliquots of each sample were transferred to a microtitre plate to which luminol (1 μM); obtained from Sigma; Catalogue No. A8511 is added. Activation of the neutrophils was immediately initiated by addition of (1 μM) fMLP; obtained from Sigma, Catalogue No. F3506. Light output from each well was recorded for 30 minutes in a microplate luminometer. Total light output (integral of the time-course) was determined for each well. Inhibitory activities of test drugs against neutrophil ROS generation is expressed as percentage activity relative to a no drug control (100% activation or generation of ROS) containing 0.25% DMSO. Concentration of test compound required to inhibit the generation of ROS to 50% of control values (IC50's) were determined from concentration-response curves by non-linear regression analysis.

[3] = target: T1, cAMP phosphodiesterase 3 from human platelets (Homo sapiens, UniProt Q14432); test: Inhibition of cAMP phosphodiesterase 3 from human platelets; type: biochemical; conditions: for IC50: PDE3, platelet cell extract, X marks this range
T1 construct: from tissue; host or cells: human platelets, cytoplasmic extract
T1 sequence (Q14432 whole entry): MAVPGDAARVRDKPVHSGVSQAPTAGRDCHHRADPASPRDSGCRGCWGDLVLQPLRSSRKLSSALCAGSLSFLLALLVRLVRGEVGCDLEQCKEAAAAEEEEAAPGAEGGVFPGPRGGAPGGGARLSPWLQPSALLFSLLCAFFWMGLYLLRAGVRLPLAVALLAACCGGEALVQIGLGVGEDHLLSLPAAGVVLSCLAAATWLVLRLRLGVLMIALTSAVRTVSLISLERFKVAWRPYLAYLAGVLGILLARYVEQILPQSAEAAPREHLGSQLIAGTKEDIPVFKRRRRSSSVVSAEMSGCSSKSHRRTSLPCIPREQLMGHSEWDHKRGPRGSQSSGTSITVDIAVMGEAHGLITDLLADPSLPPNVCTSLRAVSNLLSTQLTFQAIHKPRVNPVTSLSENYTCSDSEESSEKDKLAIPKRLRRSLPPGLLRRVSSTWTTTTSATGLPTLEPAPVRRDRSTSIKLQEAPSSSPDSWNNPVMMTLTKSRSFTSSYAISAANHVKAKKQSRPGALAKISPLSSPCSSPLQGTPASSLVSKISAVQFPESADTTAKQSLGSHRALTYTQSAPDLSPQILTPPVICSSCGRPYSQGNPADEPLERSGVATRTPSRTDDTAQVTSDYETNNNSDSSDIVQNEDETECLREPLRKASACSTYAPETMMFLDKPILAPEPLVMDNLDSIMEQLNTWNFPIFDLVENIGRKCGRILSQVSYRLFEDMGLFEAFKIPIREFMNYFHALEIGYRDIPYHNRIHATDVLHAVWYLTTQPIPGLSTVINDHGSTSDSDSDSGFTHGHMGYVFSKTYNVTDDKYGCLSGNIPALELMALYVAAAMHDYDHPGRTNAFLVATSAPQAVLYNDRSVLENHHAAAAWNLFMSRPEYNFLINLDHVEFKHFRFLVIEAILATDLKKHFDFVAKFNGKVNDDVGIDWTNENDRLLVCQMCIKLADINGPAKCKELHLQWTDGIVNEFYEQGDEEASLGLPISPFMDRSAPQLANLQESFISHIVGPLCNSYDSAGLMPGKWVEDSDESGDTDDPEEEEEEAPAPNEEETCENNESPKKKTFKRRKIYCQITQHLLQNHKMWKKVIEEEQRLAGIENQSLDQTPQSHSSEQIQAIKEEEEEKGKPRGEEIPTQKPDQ
Excerpt: Compound 12 was screened for activity against 5 of the major classes of mammalian cyclic nucleotide phosphodiesterase (termed PDE 1 through 5). PDE's 1 through 4 utilize cAMP as substrate while PDE 5 uses cGMP. The broad specificity PDE inhibitor 3-isobutyl-1-methylxanthine (IBMX; Sigma; Catalogue No. 17018)) was used as a positive control in all assays. PDE's for the various assays were partially purified from the following cells/tissues; PDE 1 (bovine heart), PDE 2 (human platelets), PDE 3 (human platelets), PDE 4 (human promonocytic U937 cells) and PDE 5 (human platelets).
Platelet cell extracts were prepared as described above for the U937 cells. The PDE3 assay was performed using platelet cell extract as described above for the PDE 4 assay. Platelets contain PDE 2, 3 and 5. However PDE2 and 5 preferentially utilize cGMP, so in an assay with cAMP as a substrate they are not detected.

[4] = test system: High Affinity Rolipram Binding Site of PDE4 in Mouse Brain; test: Displacement of [3H]-rolipram from its high affinity binding site (HARBS); conditions: ratio of IC50 for PDE4 catalytic activity to concentration displacing 50% of rolipram from HARBS
Description: Suspension was centrifuged twice at 30,000×G at 4° C. and the supernatant discarded. The pellet was resuspended in buffer, and adjusted to a protein concentration of 0.5 mg/mL. Drugs to be tested were dissolved in DMSO and pipetted in triplicate into a 96 well microplate at concentrations ranging from 1 to 30,000 nM. […] The plate was incubated at 4° C. for 1 hour. Contents of the plate were aspirated through a Whatman GF/C filterplate, and rinsed with 4×200 μL ice-cold buffer. […] Triplicate determinations were performed at each concentration.

[5] = test system: cAMP response element luciferase activity in human U937 monocytic cells; test: Potentiation of forskolin-induced CRE-luciferase activity in U937 cells; type: cell-based; conditions: U-937, U937 cells co-incubated with 10 μM forskolin, 4 hours, X marks this range
Description: Compounds of the present invention were thereby shown to provide potentiated luciferase expression in U937 cells treated with the adenylyl cyclase activator forskolin.
Human pro-monocytic U937 cells were maintained in RPMI medium containing 10% FCS and 2 mM […]. U937 cells were transiently transfected as described in Biotechniques Vol. 17(6):1058, 1994. Briefly, cells were grown in medium containing serum to a density of 5×10^6 cells/mL and then resuspended in media containing serum at a density of approximately 1×10^7 cells/mL. 400 μL of cells were transferred into the electroporation cuvette containing 10 μg of the reporter vector (PCRE-luc) in a volume of 40 μL H2O. Reporter vector DNA was prepared from DH5α E. coli using the DNA […] free kit (Qiagen) as per manufacturers instructions. U937 cells were clectroporated at room temperature using a BIORAD electroporator. Capacitance was set to 1050 μF and voltage was 280V. The time constant was noted after each electroporation. Cells were then diluted in 4 mL of media and serum and 200 μL of cells were plated per well. Cells were allowed to recover for 16-18 hours. Cells were then treated with a test compound or vehicle in the presence or absence of 10 μM forskolin for 4 hours at 37° C.
The luciferase assay was performed as per manufacturers instructions (Tropix). Briefly, cells were centrifuged for 4 minutes at 1200 rpm and media supernatant was removed. Cell pellets were lysed in 15 μL Lysis buffer (Tropix). Luciferase assay was performed using 10 μL of cell lysate with 10 μL of buffer A and 25 μL buffer B. Luciferase activity was obtained using a luminometer with a 5-second delay followed by a read time of 10 seconds.

[6] = 100 mg/kg intracolonically at 12 h intervals for one week
[7] = 100 mg/kg intracolonically at 12 h intervals for one week, day 7
[8] = read-out: IC50 RANGE (μM) >100, ROS production, X marks this range
[9] = read-out: IC50 range (μM) 10-100
[10] = read-out: IC50 RANGE (μM) <1, ROS production, X marks this range
[11] = read-out: EC50 range (μM) 0.1-1

Compound | IC50 [3] | PDE4:HARBS [4] | EC50 ([5]; read-out: EC50 range (μM) 1-25) | further results
Nc1ccc(O)c(C(=O)O)c1 [Compound 5-ASA, 5-aminosalicylic acid] | – | – | – | Body Weight Change (%) [1, 6]: −20.2 ± 3.4%; Mortality [1, 6]: 0/8; Adhesion (Incidence) [1, 7]: (7/8); Adhesion Score [1, 7]: 1.4 ± 0.3; Bowel Thickness (mm) [1, 7]: 2.66 ± 0.69 mm; Damage Score [1, 7]: 6.3 ± 0.8; Global Colitis Score [1, 7]: 10.41 ± 1.58; loss of body weight ([1]; 100 mg/kg, one-week study): ~20%; MPO Activity (U/mg) ([1]; colonic tissue, 100 mg/kg intracolonically at 12 h intervals for one week, day 7): 67.5 ± 8.8 U/mg; Diarrhea ([1]; incidence, 100 mg/kg intracolonically at 12 h intervals for one week, day 7, 100 mg/kg): significantly reduce and 1/8; Histology Score ([1]; percentage of luminal surface ulcerated, 100 mg/kg intracolonically for one week, day 7): 91.4 ± 5.9
COc1ccc([C@H]2COC(=O)C(Cc3ccc(OCc4ccccc4)c(OC)c3)C2)cc1OC (some centres unmarked) [Compound 22] | > 100 µM | <1 | 1 to 25 µM | IC50 [2, 8]: > 100 µM
COc1ccc([C@@H]2CCC(=O)NC2)cc1OC [Compound 46] | > 100 µM | >1 | 1 to 25 µM | IC50 ([2]; ROS production, X marks this range, read-out: IC50 RANGE (μM) 10-100): 10 to 100 µM
COc1ccc([C@@H]2CCC(=O)N(Cc3ccccc3)C2)cc1OC [Compound 47] | – | – | 1 to 25 µM | IC50 ([2]; ROS production, X marks this range, read-out: IC50 RANGE (μM) 1-10): 1 to 10 µM; IC50 [3, 9]: 10 to 100 µM
COc1ccc([C@@H]2CCC(=O)NC2)cc1OC1CCCC1 [Compound 58] | > 100 µM | >1 | – | IC50 [2, 10]: < 1 µM; EC50 [5, 11]: 0.1 to 1 µM
COc1cc(CC2C[C@@H](c3ccc(OC)c(OC4CCCC4)c3)CNC2=O)ccc1OCc1ccccc1 (some centres unmarked) [Compound 61] | – | <1 | 1 to 25 µM | IC50 [2, 8]: > 100 µM; IC50 [3, 9]: 10 to 100 µM
COc1ccc([C@H]2COC(=O)C(Cc3ccc(F)c(F)c3)C2)cc1OC (some centres unmarked) [Compound 77] | – | – | 1 to 25 µM | IC50 [2, 8]: > 100 µM; IC50 [3, 9]: 10 to 100 µM
COc1ccc([C@H]2COC(=O)C(Cc3ccc(OCc4ccccc4)c(OCc4ccccc4)c3)C2)cc1OC (some centres unmarked) [Compound 79] | > 100 µM | <1 | – | IC50 [2, 8]: > 100 µM; EC50 [5, 11]: 0.1 to 1 µM
COc1ccc([C@H]2COC(=O)C(Cc3ccc(O)c(O)c3)C2)cc1OC (some centres unmarked) [Compound 80] | – | – | 1 to 25 µM | IC50 [2, 10]: < 1 µM; IC50 [3, 9]: 10 to 100 µM
COc1ccc([C@H]2COC(=O)C(Cc3ccc(O)c(N)c3)C2)cc1OC1CCCC1 (some centres unmarked) [Compound 94] | > 100 µM | >1 | – | IC50 [2, 10]: < 1 µM; EC50 [5, 11]: 0.1 to 1 µM
COc1ccc([C@H]2COC(=O)C(C)C2)cc1OC1CCCC1 (some centres unmarked) [Compound 95] | > 100 µM | – | – | –
C=CCC1C[C@@H](c2ccc(OC)c(OC3CCCC3)c2)COC1=O (some centres unmarked) [Compound 96] | > 100 µM | – | – | –
COc1ccc([C@H]2COC(=O)C(Cc3ccc(O)c(N)c3)C2)cc1Cc1ccccc1 (some centres unmarked) [Compound 114] | > 100 µM | – | – | –
COc1ccc([C@H]2COC(=O)C(Cc3cccc(O)c3)C2)cc1OC (some centres unmarked) [Compound 131] | > 100 µM | – | 1 to 25 µM | IC50 [2, 10]: < 1 µM
COc1ccc(CC2C[C@@H](c3ccc(OC)c(OC)c3)COC2=O)cc1 (some centres unmarked) [Compound 132] | – | <1 | 1 to 25 µM | IC50 [2, 8]: > 100 µM; IC50 [3, 9]: 10 to 100 µM
COc1ccc([C@H]2COC(=O)C(Cc3ccc(O)cc3)C2)cc1OC (some centres unmarked) [Compound 133] | > 100 µM | <1 | 1 to 25 µM | IC50 [2, 10]: < 1 µM
COc1ccc([C@H]2COC(=O)C(Cc3ccccc3)C2)cc1OC (some centres unmarked) [Compound 139] | > 100 µM | – | 1 to 25 µM | IC50 [2, 8]: > 100 µM
CCOc1cc(C2CCC(=O)OC2)ccc1OC (centres unmarked) [Compound 153] | – | >1 | 1 to 25 µM | IC50 [2, 10]: < 1 µM

Compound | IC50 [3] | PDE4:HARBS [4] | EC50 ([5]; read-out: EC50 range (μM) 1-25) | further results
CCCOc1cc(C2CCC(=O)OC2)ccc1OC (centres unmarked) [Compound 154] | – | >1 | 1 to 25 µM | IC50 [2, 10]: < 1 µM
COc1ccc([C@@H]2CCC(=O)OC2)cc1OCC1CCCCC1 [Compound 158] | > 100 µM | <1 | – | EC50 [5, 11]: 0.1 to 1 µM
CCCCCOc1cc([C@@H]2CCC(=O)OC2)ccc1OC [Compound 159] | > 100 µM | >1 | – | EC50 ([5]; read-out: EC50 range (μM) >25): > 25 µM
CCCCCCOc1cc([C@@H]2CCC(=O)OC2)ccc1OC [Compound 160] | > 100 µM | <1 | 1 to 25 µM | –
CCCCCCCOc1cc([C@@H]2CCC(=O)OC2)ccc1OC [Compound 161] | > 100 µM | <1 | – | EC50 ([5]; read-out: EC50 range (μM) >25): > 25 µM
CCCCCCCCOc1cc([C@@H]2CCC(=O)OC2)ccc1OC [Compound 162] | > 100 µM | – | – | EC50 ([5]; read-out: EC50 range (μM) >25): > 25 µM
COc1ccc([C@H]2COC(=O)C(Cc3cccc(C(F)(F)F)c3)C2)cc1OC1CCCC1 (some centres unmarked) [Compound 169] | – | <1 | – | –
COc1ccc([C@H]2COC(=O)C(Cc3ccc4c(c3)OCO4)C2)cc1OC1CCCC1 (some centres unmarked) [Compound 171] | – | <1 | – | –
COc1ccc([C@H]2COC(=O)C(Cc3cccc(OCc4ccccc4)c3)C2)cc1OC1CCCC1 (some centres unmarked) [Compound 172] | – | <1 | – | –
COc1ccc([C@H]2COC(=O)C(Cc3ccc(C)c([N+](=O)[O-])c3)C2)cc1OC1CCCC1 (some centres unmarked) [Compound 176] | – | >1 | – | –
COc1ccc(CC2C[C@@H](c3ccc(OC)c(OC4CCCC4)c3)COC2=O)cc1O (some centres unmarked) [Compound 180] | – | >1 | – | –
COc1ccc([C@H]2COC(=O)C(Cc3cccc(O)c3)C2)cc1OC1CCCC1 (some centres unmarked) [Compound 182] | – | <1 | – | –
COc1ccc([C@H]2COC(=O)C(Cc3ccc(O)cc3)C2)cc1OC1CCCC1 (some centres unmarked) [Compound 183] | – | <1 | – | –
COc1ccc([C@H]2COC(=O)C(Cc3ccc(N)cc3)C2)cc1OC1CCCC1 (some centres unmarked) [Compound 185] | – | >1 | – | –
COc1ccc(N)cc1CC1C[C@@H](c2ccc(OC)c(OC3CCCC3)c2)COC1=O (some centres unmarked) [Compound 186] | – | >1 | – | –
COc1ccc([C@H]2COC(=O)C(Cc3ccc(C)c(N)c3)C2)cc1OC1CCCC1 (some centres unmarked) [Compound 187] | – | >1 | – | –
COc1cc2c(cc1OC)-c1c/c(=N\c3c(C)cc(C)cc3C)n(C)c(=O)n1CC2 [trequinsin, reference compound] | – | – | – | effect in PDE3 assay ([3]; platelet cell extract, cAMP as substrate): potent inhibitor
